According to patent publication US4329426A, “Process for preparation of antibiotics and biologically pure culture for use therein” (Kowa Company, Ltd., priority 1978, dated 1982):

Columns and labels:
[1] = Solubility; format: physicochemical
[2] = test system: mice; assay: Acute toxicity in mice; format: in vivo
[3] = Acute toxicity in mice; format: in vivo; conditions: mouse, in vivo

| Structure (SMILES) | Solubility in acetone [1] | Solubility in chloroform, ethyl acetate, diethyl ether, hexane and petroleum ether [1] | Solubility in ethanol [1] | Solubility in methanol [1] | Solubility in water [1] | LD50 ([2]; iv.) [mg/kg] | LD50 ([2]; sc.) [mg/kg] | LD50 ([3]; iv.) [mg/kg] | LD50 ([3]; sc.) [mg/kg] |
| --- | --- | --- | --- | --- | --- | --- | --- | --- | --- |
| CNCC1CCC(N)C(OC2C(N)CC(OC)C(NC)C2O)O1 (stereo not drawn) [KA-7038 VI] | slightly soluble | Insoluble | little soluble | Easily soluble | Very readily soluble | > 300 | > 600 |  |  |
| CNCC1CCC(N)C(OC2C(N)CC(OC)C(NC)C2O)O1 (stereo not drawn) [KA-7038 III] | slightly soluble | Insoluble | little soluble | Easily soluble | Very readily soluble |  |  | > 300 | > 600 |
| CNC1C(O)CC(N)C(OC2OC(CN)CCC2N)C1O (stereo not drawn) [KA-7038 II] | slightly soluble | Insoluble | little soluble | Easily soluble | Very readily soluble |  |  | > 300 | > 600 |
| CNCC1CCC(N)C(OC2C(N)CC(OC)C(N(C)C(=O)CN)C2O)O1 (stereo not drawn) [KA-7038 I] | sightly soluble | Insoluble | little soluble | Easily soluble | Very readily soluble |  |  | > 100 | > 400 |
| CNC1C(O)C(OC2OC(CN)CCC2N)C(N)C(O)C1OC (stereo not drawn) [KA-7038 IV] | slightly soluble | Insoluble | little soluble | Easily soluble | Very readily soluble |  |  | > 300 | > 600 |
| CNC1C(OC)CC(N)C(OC2OC(CN)CCC2N)C1O (stereo not drawn) [KA-7038 V] | slightly soluble | Insoluble | little soluble | Easily soluble | Very readily soluble |  |  | > 300 | > 600 |
